Measurements from ChEMBL document CHEMBL1201862, “PubChem BioAssay data set” (2004).
Activity calls are given as the source filed them.

Tests used:
[1] = system: Jurkat; assay: SAR Analysis of small molecule inhibitors of […] specific antigen receptor-induced NF-kB activation in a Jurkat cell line using a luminescence assay - Set 3. [Related pubchem assays (depositor defined):AID435022, AID435025, AID465]; type: functional, cell-based; conditions: Homo sapiens
[2] = system: HEK293; assay: SAR Analysis of small molecule inhibitors of B-cell specific antigen receptor-induced NF-kB activation in a HEK-293T cell line using a luminescence assay - Set 2. [Related pubchem assays (depositor defined):AID435022, AID435025, AID489021]; type: functional, cell-based; conditions: Homo sapiens
[3] = system: HEK293; assay: cytotoxicity in HEK293T NF-kB-Luc cells, SAR follow-up, cytotoxicity control for NF-kB activator project, cell-based, resazurin fluorescence (AID 493251); type: functional; conditions: Homo sapiens
[4] = biological target: T1, Endoribonuclease toxin MazF (Escherichia coli K-12, UniProt P0AE70); assay: MazF endoribonuclease activators, SAR follow-up, biochemical, fluorescence, single-stranded RNA substrate (AID 588603); type: functional
T1 sequence (P0AE70 whole entry): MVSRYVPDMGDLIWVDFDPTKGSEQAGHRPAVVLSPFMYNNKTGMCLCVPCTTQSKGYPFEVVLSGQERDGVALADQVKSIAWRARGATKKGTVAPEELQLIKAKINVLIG

[5] = biological target: T1, Endoribonuclease toxin MazF; assay: MazF toxin RNase activators, dose response, biochemical, fluorescence, single-stranded RNA substrate, uHTS hits (AID 588481); type: functional
[6] = system: MEF; assay: SAR analysis of small molecule cytotoxicity of MazEF TA System activators in embryonic fibroblast (MEF) cells. [Related pubchem assays (depositor defined):AID504720, AID504743]; type: functional; conditions: Mus musculus
[7] = biological target: T1, Endoribonuclease toxin MazF; assay: SAR analysis of small molecule activators of the MazEF TA System via a fluorescence-based single-stranded RNase assay counterscreen. [Related pubchem assays (depositor defined):AID504720, AID504743]; type: functional
[8] = biological target: T1, Endoribonuclease toxin MazF; assay: fluorescent RNA oligo signal without MazF, dose response, counter-screen for MazEF activator project, biochemical, fluorescence, single-stranded RNase substrate (AID 588502); type: functional
[9] = biological target: T2, Caspase-3 (Homo sapiens, UniProt P42574); type: functional;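 note: Dose-response selectivity test against caspase-3 for candidate inhibitors of sentrin-specific proteases (SENPs)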
T2 sequence (P42574 whole entry): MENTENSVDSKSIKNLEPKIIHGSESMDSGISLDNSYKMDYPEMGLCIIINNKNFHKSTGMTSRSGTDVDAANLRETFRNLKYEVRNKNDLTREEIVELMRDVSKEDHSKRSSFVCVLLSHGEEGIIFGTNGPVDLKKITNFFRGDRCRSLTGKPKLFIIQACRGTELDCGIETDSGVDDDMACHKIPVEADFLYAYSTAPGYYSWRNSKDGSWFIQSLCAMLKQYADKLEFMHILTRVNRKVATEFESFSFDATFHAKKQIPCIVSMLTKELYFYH

[10] = biological target: T3, Sentrin-specific protease 7 (Homo sapiens, UniProt Q9BQF6); type: functional;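 note: Luminescence-based dose-response confirmation of ultra-high-throughput screening hits, measuring inhibition of SENP7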
T3 sequence (Q9BQF6 whole entry): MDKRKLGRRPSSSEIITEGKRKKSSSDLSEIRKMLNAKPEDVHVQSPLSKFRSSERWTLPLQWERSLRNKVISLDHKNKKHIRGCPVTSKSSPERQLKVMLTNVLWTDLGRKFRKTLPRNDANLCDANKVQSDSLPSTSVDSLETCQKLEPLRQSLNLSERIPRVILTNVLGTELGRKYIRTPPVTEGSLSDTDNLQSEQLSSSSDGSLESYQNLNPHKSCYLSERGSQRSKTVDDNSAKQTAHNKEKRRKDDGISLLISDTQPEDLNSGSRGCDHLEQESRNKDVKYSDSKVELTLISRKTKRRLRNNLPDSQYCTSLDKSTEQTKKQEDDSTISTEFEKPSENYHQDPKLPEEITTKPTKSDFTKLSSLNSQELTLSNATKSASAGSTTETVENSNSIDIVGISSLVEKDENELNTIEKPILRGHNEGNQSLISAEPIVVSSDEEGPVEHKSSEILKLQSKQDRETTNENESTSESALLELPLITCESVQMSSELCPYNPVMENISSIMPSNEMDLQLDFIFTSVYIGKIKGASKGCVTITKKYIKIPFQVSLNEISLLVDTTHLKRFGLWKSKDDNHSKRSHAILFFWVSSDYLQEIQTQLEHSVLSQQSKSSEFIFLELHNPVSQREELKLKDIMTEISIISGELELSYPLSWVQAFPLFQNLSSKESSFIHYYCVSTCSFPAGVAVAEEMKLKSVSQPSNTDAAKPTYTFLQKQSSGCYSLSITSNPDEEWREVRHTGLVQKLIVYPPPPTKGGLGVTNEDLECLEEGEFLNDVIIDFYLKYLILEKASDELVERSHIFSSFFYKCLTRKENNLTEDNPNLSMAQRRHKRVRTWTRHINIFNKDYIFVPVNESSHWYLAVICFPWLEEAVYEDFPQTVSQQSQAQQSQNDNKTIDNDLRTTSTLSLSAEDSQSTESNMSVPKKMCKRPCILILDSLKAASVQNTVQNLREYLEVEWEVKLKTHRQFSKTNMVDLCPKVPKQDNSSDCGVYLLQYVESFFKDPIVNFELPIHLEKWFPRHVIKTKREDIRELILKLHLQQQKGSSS

[11] = biological target: T4, Sentrin-specific protease 6 (Homo sapiens, UniProt Q9GZR1); type: functional;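 note: Luminescence-based dose-response confirmatory assay of SENP6 inhibition, following up an ultra-high-throughput screen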
T4 sequence (Q9GZR1 whole entry): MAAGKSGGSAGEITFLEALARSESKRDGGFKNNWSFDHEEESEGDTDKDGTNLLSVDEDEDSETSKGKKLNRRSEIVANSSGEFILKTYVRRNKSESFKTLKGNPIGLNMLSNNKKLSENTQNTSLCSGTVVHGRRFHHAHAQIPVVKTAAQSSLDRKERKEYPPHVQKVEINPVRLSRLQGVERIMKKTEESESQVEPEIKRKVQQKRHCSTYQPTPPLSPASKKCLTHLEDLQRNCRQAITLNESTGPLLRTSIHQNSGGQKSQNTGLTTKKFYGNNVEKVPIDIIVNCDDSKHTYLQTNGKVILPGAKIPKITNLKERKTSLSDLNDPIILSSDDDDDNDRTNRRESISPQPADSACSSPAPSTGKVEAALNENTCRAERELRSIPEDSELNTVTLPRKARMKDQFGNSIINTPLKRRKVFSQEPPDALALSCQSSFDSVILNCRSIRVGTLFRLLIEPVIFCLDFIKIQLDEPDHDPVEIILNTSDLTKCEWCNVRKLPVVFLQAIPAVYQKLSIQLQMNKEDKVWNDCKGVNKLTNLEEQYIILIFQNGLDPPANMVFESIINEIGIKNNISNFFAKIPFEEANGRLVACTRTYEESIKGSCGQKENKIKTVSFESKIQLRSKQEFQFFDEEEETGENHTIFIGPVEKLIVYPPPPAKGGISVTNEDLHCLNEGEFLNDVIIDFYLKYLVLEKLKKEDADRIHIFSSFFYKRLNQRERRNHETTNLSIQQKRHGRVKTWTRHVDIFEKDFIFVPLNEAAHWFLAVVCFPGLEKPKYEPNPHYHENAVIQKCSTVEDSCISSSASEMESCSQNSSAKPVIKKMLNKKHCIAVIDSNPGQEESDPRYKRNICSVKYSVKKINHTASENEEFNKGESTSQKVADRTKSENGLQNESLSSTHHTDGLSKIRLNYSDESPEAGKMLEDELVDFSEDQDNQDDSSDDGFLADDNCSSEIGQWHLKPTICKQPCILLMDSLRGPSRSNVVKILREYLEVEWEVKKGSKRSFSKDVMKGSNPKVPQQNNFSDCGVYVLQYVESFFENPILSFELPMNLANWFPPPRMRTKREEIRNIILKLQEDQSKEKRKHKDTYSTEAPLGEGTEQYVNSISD

[12] = biological target: T5, Sentrin-specific protease 8 (Homo sapiens, UniProt Q96LD8); type: functional;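 note: luminescence read-out of SENP8 inhibition, dose-response confirmation following an ultra-high-throughput screen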
T5 sequence (Q96LD8 whole entry): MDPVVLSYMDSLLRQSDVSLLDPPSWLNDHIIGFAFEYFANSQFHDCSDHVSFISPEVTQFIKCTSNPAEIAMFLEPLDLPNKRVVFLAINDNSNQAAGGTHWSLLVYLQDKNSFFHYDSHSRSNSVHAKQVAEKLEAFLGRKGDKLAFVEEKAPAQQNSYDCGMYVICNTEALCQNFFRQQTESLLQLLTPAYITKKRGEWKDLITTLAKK

[13] = system: Streptococcus sp. 'group A'; assay: growth inhibition of control SK(-) GAS strain, dose response, counter-screen for streptokinase expression inhibitor project, luminescence, kanamycin, BacTiterGlo, confirmation (AID 1900); type: functional, organism-based
[14] = biological target: T6, Streptokinase A (Streptococcus pyogenes serotype M1, UniProt P10520); assay: S. pyogenes streptokinase expression inhibitors, potency, dose response, plasminogen activation absorbance, OD405 (AID 1914); type: functional, Streptococcus pyogenes M1 GAS;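 note: secreted streptokinase activity via plasminogen activation per viability signal from cell pellet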
T6 sequence (P10520 whole entry): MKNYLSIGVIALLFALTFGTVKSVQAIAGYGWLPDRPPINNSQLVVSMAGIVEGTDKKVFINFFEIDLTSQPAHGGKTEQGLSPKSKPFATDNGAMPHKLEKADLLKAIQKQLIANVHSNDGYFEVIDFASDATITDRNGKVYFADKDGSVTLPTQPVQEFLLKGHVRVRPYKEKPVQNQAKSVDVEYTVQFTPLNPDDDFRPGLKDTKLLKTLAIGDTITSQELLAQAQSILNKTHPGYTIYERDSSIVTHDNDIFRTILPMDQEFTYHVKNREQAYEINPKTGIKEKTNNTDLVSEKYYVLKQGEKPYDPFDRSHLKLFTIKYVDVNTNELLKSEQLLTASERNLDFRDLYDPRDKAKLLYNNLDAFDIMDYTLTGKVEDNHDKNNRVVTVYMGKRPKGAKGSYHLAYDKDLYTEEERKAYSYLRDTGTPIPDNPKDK

[15] = system: Streptococcus; assay: Group A Streptococcus viability loss, dose response, counter-screen for streptokinase expression inhibitor project, luminescence, BacTiterGlo (AID 1915); type: functional, organism-based;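 note: potency for reduction of bacterial viability or growth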
[16] = biological target: Cysteine protease ATG4B (Homo sapiens, UniProt Q9Y4P1); type: functional;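 note: Fluorescence-based dose-response confirmation assay measuring inhibition of ATG4B activity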
Cysteine protease ATG4B, sequence (Q9Y4P1 whole entry): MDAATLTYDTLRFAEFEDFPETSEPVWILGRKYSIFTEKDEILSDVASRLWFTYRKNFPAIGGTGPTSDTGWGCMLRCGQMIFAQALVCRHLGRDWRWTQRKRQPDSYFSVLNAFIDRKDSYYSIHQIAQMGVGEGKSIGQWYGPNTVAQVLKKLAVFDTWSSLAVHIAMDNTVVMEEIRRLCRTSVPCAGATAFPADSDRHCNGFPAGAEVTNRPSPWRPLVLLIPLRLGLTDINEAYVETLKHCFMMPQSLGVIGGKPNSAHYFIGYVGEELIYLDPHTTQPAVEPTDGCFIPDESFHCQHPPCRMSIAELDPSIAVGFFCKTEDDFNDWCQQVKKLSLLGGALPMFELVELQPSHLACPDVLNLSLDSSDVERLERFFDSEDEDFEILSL

[17] = biological target: Phospholipase A2 (Homo sapiens, UniProt P04054); type: functional;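 note: confirmatory dose-response counterscreen on phospholipase A2, testing hits that came from an ultra-high-throughput screen for ATG4B inhibitors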
Phospholipase A2, sequence (P04054 whole entry): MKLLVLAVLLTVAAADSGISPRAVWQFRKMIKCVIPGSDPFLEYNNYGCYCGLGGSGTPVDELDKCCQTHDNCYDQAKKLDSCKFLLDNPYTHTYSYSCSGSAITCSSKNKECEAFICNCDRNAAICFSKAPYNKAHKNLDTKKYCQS

[18] = system: HEK293; assay: cells; type: functional, cell-based; conditions: Homo sapiens
[19] = biological target: T7, Nuclear receptor subfamily 0 group B member 1 (Homo sapiens, UniProt P51843); assay: Luminescence-based cell-based high throughput dose response assay for inhibitors of the orphan nuclear receptor subfamily 0, group B, member 1 (DAX1; NR0B1). [Related pubchem assays (depositor defined):AID504766, AID504790]; type: functional
T7 sequence (P51843 whole entry): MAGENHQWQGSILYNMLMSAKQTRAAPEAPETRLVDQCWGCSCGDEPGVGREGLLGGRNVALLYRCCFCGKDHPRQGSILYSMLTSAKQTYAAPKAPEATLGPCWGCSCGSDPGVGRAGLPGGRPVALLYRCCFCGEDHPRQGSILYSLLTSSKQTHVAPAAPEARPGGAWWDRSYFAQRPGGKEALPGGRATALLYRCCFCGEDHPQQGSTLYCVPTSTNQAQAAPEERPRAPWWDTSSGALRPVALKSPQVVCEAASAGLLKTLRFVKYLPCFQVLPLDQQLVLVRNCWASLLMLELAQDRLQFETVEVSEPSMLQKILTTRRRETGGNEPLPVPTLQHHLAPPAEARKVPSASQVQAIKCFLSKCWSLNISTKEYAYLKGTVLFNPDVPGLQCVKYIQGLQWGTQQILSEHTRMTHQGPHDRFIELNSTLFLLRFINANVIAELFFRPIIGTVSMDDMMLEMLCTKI

CCOc1ccc(-c2nc(CSCC(=O)NCc3ccc(C)cc3)c(C)o2)cc1
IC50 [1]: 48.9 µM (inactive)
IC50 [2]: > 80 µM (inactive)
IC50 [3]: > 80 µM (inactive)

Cc1[nH]c2ccccc2c1/C=C/c1nc2ccccc2c(=O)n1-c1ccc([N+](=O)[O-])cc1
EC50 [4]: > 99 µM (inactive)
EC50 [5]: > 99 µM (inactive)
CC50 [6]: > 99 µM (inactive)
EC50 [7]: > 99 µM (inactive)
EC50 [8]: > 99 µM (inactive)

CCSc1nnc(NC(=O)c2ccc(C)cc2)s1
IC50 [9]: 28 µM (active)
IC50 [10]: 9.7 µM (active)
IC50 [11]: > 100 µM (inactive)
IC50 [12]: > 100 µM (inactive)

COC(=O)/C=C1\SC(Nc2ccc(Cl)c(Cl)c2)=NC1=O
EC50 [13]: 10 µM (active)
EC50 [14]: 15.4 µM (active)
EC50 [15]: 16.9 µM (active)
IC50 [16]: 16.9 µM (active)
IC50 [17]: 11 µM (active)

Cc1ccc2[nH]c(-c3ccc(NC(=O)c4ccco4)cc3)nc2c1
IC50 [9]: 29.6 µM (active)
IC50 [10]: 6.23 µM (active)
IC50 [11]: > 100 µM (inactive)
IC50 [12]: 30.8 µM (active)

C=CCNC(=O)CCc1nc(-c2ccc(C(C)(C)C)cc2)no1
IC50 [1]: 25.2 µM (inactive)
IC50 [2]: 5.3 µM (active)
IC50 [3]: > 80 µM (inactive)

O=[N+]([O-])c1ccc(S(=O)(=O)N/N=C/c2c[nH]c3ccccc23)cc1
EC50 [4]: 56.8 µM (inactive)
CC50 [6]: > 99 µM (inactive)
EC50 [7]: > 99 µM (inactive)

C/C(=N\NC(=S)NC1CCCCC1)c1ccc(Cl)c(Cl)c1
IC50 [18]: > 67.5 µM (inactive)
IC50 [19]: > 67.5 µM (inactive)

COc1ccccc1/C=N\Nc1ccccc1[N+](=O)[O-]
IC50 [18]: > 67.6 µM (inactive)
IC50 [19]: > 67.6 µM (inactive)
